This experiment relates to rat PMVEC. Description: Gamma-retroviral infection efficiency of PMVEC (percent fluorescent cells by FACS). In kind it is cell-based. The conditions noted are these: 1 μmol/L; MMLV with ecotropic, amphotropic, VSV-G pantropic envelope. The procedure: Cell cultures: Phoenix Retroviral Expression System ecotropic and amphotropic packaging cells were purchased from Orbigen, Inc. (San Diego, Calif.). […] Rat pulmonary microvascular endothelial cells (PMVEC), were obtained from our cell culture core at the University of South Alabama (King J, et al. Structural and functional characteristics of lung macro and microvascular endothelial phenotypes. Microvascular Res. 2004, March, 67(2). 139-151). Human glioblastoma cells (U87MG), and human mammary carcinoma cells (T47D) were obtained from ATCC. All cells were cultured in DMEM, 10% FBS, 2 mmol L-Glutamine and used for experiments at passages 4-9. All cells were grown in humidified incubators at 37° C. in 5% CO2. Cells were harvested by 0.05% trypsin/0.53 mM EDTA digestion, washed, re-suspended in cultured medium and analyzed directly by FACScan in the University of South Alabama Flow Cytometry Core. For cell cycle analysis cellular DNA was stained with […] of propridium iodide for 20 minutes as described elsewhere (48) and then analyzed by FACScan.
Vectors and delivery systems: pBMN-GFP (Orbigen, Inc., San Diego, Calif.), a retroviral vector that expresses GFP driven by the MMLV's promoter in Phoenix and other cells was used. […]

Each structure is given as a SMILES string.

For `CC#C[C@]1(O)CC[C@H]2[C@@H]3CCC4=CC(=O)CCC4=C3[C@@H](c3ccc(N(C)C)cc3)C[C@@]21C` [mifepristone, 11-beta-(4-dimethylaminophenyl)-17-beta-hydroxy-17-alpha-(1-propynyl)-estra-4,9-dien-3-one], the “Percentage of infected cells” value is recorded as “doubled”.

Values taken from US20120028358A1, “METHOD FOR INCREASING RETROVIRAL INFECTIVITY” (priority 2010, published 2012).
